The target in the test is T1, PRKD2 (PKD2) (Homo sapiens, UniProt Q9BZL6).
T1 construct: purchased Thermo Fisher Scientific (Life Technologies) SelectScreen
Nature of the test: SelectScreen Z'LYTE. The class given is biochemical. In short, it runs like this:
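NU5455 was profiled across the SelectScreen Broad panel of kinase activity and binding assays. Z'LYTE reactions such as CSF1R ran at apparent Km ATP, while the Adapta CAMK1 assay used ATP listed as 10. Values are given as percent.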

The structures appear in SMILES notation.

T1 sequence (Q9BZL6 whole entry): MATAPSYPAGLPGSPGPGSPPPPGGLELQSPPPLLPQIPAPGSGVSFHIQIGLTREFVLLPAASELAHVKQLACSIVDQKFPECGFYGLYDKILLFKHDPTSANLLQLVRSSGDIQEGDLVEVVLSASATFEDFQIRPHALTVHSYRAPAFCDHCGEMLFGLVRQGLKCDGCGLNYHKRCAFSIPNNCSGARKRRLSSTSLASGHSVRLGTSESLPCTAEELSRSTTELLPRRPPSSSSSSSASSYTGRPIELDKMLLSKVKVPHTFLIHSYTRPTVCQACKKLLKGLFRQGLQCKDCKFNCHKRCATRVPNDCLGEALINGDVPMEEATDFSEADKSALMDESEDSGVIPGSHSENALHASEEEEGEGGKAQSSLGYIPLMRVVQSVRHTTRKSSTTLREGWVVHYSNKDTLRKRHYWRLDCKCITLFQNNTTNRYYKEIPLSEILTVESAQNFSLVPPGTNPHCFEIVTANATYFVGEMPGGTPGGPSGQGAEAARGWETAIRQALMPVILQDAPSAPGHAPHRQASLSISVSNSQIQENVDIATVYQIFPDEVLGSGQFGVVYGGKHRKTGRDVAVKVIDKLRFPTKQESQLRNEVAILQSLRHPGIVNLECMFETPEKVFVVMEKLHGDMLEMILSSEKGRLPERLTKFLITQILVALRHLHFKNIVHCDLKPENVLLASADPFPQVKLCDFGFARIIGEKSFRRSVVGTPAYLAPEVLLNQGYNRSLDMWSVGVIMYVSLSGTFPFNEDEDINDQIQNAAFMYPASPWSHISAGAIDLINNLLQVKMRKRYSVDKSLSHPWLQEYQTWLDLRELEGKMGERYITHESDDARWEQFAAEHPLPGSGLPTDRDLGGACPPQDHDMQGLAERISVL

What is called inhibition is the change of the read-out against control, counted positive when it falls. Take `CN(C(=O)CN1CCOCC1)c1ccc2sc3c(-c4cccc5c(=O)cc(N6CC7CCC(C6)O7)oc45)cccc3c2c1` [NU5455]: the inhibition at 1 µM was -9.1%.
